Molecular target: T1, MDM2 (Homo sapiens, UniProt Q00987)
T1 construct: 20 nM GST-MDM2 protein (aa 23-117)
Assay: Mdm2-p53 Inhibition AlphaScreen
Assay type: binding
Settings: 20 nM GST-MDM2 protein (aa 23-117), 20 nM biotinylated p53 wt peptide
Experimental: Mdm2-p53 Inhibition AlphaScreen
15 μL of compound in 20% DMSO (serial pre-dilutions of compound are done in 100% DMSO) is pipetted to the wells of a white OptiPlate-96 (PerkinElmer). A mix consisting of 20 nM GST-MDM2 protein (aa 23-117) and 20 nM biotinylated p53 wt peptide (encompassing aa 16-27 of wt human p53, amino acid sequence QETFSDLWKLLP-Ttds-Lys-Biotin, molecular weight 2132.56 g/mol) is prepared in assay buffer (50 mM Tris/HCl pH 7.2; 120 mM NaCl; 0.1% bovine serum albumin (BSA); 5 mM dithiothreitol (DTT); 1 mM ethylenediaminetetraacetic acid (EDTA); 0.01% Tween 20). 30 μL of the mix is added to the compound dilutions and incubated for 15 min at rt while gently shaking the plate at 300 rounds per minute (rpm). Subsequently, 15 μL of premixed AlphaLISA Glutathione Acceptor Beads and AlphaScreen Streptavidin Donor Beads from PerkinElmer (in assay buffer at a concentration of 10 μg/mL each) are added and the samples are incubated for 30 min at rt in the dark (shaking 300 rpm). Afterwards, the signal is measured in a PerkinElmer Envision HTS Multilabel Reader using the AlphaScreen protocol from PerkinElmer.
Each plate contains negative controls where biotinylated p53-peptide and GST-MDM2 are left out and replaced by assay buffer. Negative control values are entered as low basis value when using the software GraphPad Prism for calculations. Furthermore, a positive control (5% DMSO instead of test compound; with protein/peptide mix) is pipetted. Determination of IC50 values are carried out using GraphPad Prism 3.03 software (or updates thereof).

T1 sequence (Q00987 23-117): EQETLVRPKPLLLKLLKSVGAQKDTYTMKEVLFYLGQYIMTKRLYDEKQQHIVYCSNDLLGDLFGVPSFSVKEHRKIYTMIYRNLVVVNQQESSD

IC50	Structure (SMILES)
3 nM	CCOc1cccc(CN2[C@H]3CCN(CC(=O)O)[C@H]3[C@H](c3cccc(Cl)c3F)[C@]23C(=O)Nc2cc(Cl)ccc23)c1 [Compound I-69]
32 nM	O=C(O)c1cccc([C@H]2C[C@H]3[C@@H](N2)[C@H](c2cccc(Cl)c2)[C@]2(C(=O)Nc4cc(Cl)ccc42)N3CC2CC2)c1 [Compound I-27]
9 nM	O=C(O)c1ccc([C@H]2C[C@H]3[C@@H](N2)[C@H](c2cccc(Cl)c2F)[C@]2(C(=O)Nc4cc(Cl)c(F)cc42)N3CC2CC2)cc1 [Compound I-35]
377 nM	O=C(O)c1cccc(C(=O)N2CC[C@H]3C2[C@H](c2cccc(Cl)c2F)[C@]2(C(=O)Nc4cc(Cl)ccc42)N3CC2CC2)c1 (some centres unmarked) [Compound I-93]
1300 nM	O=C(O)c1[nH]ncc1CN1CC[C@H]2[C@@H]1[C@H](c1cccc(Cl)c1F)[C@]1(C(=O)Nc3cc(Cl)ccc31)N2CC1CC1 [Compound I-72]
16 nM	NC(=O)c1ccc([C@H]2C[C@H]3[C@@H](N2)[C@H](c2cccc(Cl)c2F)[C@]2(C(=O)Nc4cc(Cl)ccc42)N3CC2CC2)cc1 [Compound I-75]
23 nM	O=C(O)c1ccc([C@H]2C[C@H]3[C@@H](N2)[C@H](c2cccc(Cl)c2)[C@]2(C(=O)Nc4cc(Cl)ccc42)N3CC2CC2)cc1 [Compound I-24]
280 nM	O=C(O)C[C@H]1C[C@H]2[C@@H](N1)[C@H](c1cccc(Cl)c1)[C@]1(C(=O)Nc3cc(Cl)ccc31)N2CC1CC1 [Compound I-46]
40 nM	O=C(O)CN1CC[C@H]2[C@@H]1[C@H](c1cccc(Cl)c1F)[C@]1(C(=O)Nc3cc(Cl)ccc31)N2CC1CC1 [Compound I-67]
107 nM	CN(C)C(=O)CCC(=O)N1CC[C@H]2C1[C@H](c1cccc(Cl)c1F)[C@]1(C(=O)Nc3cc(Cl)ccc31)N2CC1CC1 (some centres unmarked) [Compound I-84]
102 nM	O=C(CCO)N1CC[C@H]2C1[C@H](c1cccc(Cl)c1F)[C@]1(C(=O)Nc3cc(Cl)ccc31)N2CC1CC1 (some centres unmarked) [Compound I-83]
34 nM	CC(=O)N1CC[C@H]2C1[C@H](c1ccnc(Cl)c1F)[C@]1(C(=O)Nc3cc(Cl)ccc31)N2CC1CC1 (some centres unmarked) [Compound I-89]
249 nM	O=C(O)c1cccc([C@@H]2C[C@H]3[C@@H](N2)[C@H](c2cccc(Cl)c2)[C@]2(C(=O)Nc4cc(Cl)ccc42)N3CC2CC2)c1 [Compound I-28]
2 nM	CCOc1cccc(CN2[C@H]3C[C@H](c4ccc(C(=O)O)cc4)N[C@H]3[C@H](c3cccc(Cl)c3F)[C@]23C(=O)Nc2cc(Cl)ccc23)c1 [Compound I-38]
596 nM	O=C(c1ncccn1)N1CC[C@H]2C1[C@H](c1cccc(Cl)c1F)[C@]1(C(=O)Nc3cc(Cl)ccc31)N2CC1CC1 (some centres unmarked) [Compound I-80]
91 nM	O=C(O)c1ccc(CN2CC[C@H]3[C@@H]2[C@H](c2cccc(Cl)c2F)[C@]2(C(=O)Nc4cc(Cl)ccc42)N3CC2CC2)cc1 [Compound I-68]
21 nM	CCOc1cccc(CN2[C@H]3CCN(CC4CC4C(N)=O)[C@H]3[C@H](c3cccc(Cl)c3F)[C@]23C(=O)Nc2cc(Cl)ccc23)c1 (some centres unmarked) [Compound I-74]
49 nM	O=C(O)c1ccc([C@@H]2C[C@H]3[C@@H](N2)[C@H](c2cccc(Cl)c2)[C@]2(C(=O)Nc4cc(Cl)ccc42)N3CC2CC2)cc1 [Compound I-25]
85 nM	O=C(O)CN1CC[C@H]2[C@@H]1[C@H](c1cccc(Cl)c1)[C@]1(C(=O)Nc3cc(Cl)ccc31)N2CC1CC1 [Compound I-60]
212 nM	CC(=O)N1CC[C@H]2C1[C@H](c1cccc(Cl)c1F)[C@]1(C(=O)Nc3cc(Cl)ccc31)N2CC1CC1 (some centres unmarked) [Compound I-76]
6 nM	CCOc1cccc(CN2[C@H]3CCN(CC4CC4C(=O)O)[C@H]3[C@H](c3cccc(Cl)c3F)[C@]23C(=O)Nc2cc(Cl)ccc23)c1 (some centres unmarked) [Compound I-64]
106 nM	O=C(O)c1ccc(C(=O)N2CC[C@H]3C2[C@H](c2cccc(Cl)c2F)[C@]2(C(=O)Nc4cc(Cl)ccc42)N3CC2CC2)cc1 (some centres unmarked) [Compound I-92]
29 nM	CCOc1cccc(CN2[C@H]3CCN(Cc4cn[nH]c4C(=O)O)[C@H]3[C@H](c3cccc(Cl)c3F)[C@]23C(=O)Nc2cc(Cl)ccc23)c1 [Compound I-73]
280 nM	O=C(O)C[C@@H]1C[C@H]2[C@@H](N1)[C@H](c1cccc(Cl)c1)[C@]1(C(=O)Nc3cc(Cl)ccc31)N2CC1CC1 [Compound I-47]
373 nM	COc1cc([C@@H]2C[C@@H]3[C@H](N2)[C@@H](c2cccc(Cl)c2F)[C@@]2(C(=O)Nc4cc(Cl)ccc42)N3CC2CC2)ccc1C(=O)O [Compound I-32]

IC50	Structure (SMILES)
24 nM	CCOc1cccc(CN2[C@H]3CCN(CC4CCC(C(=O)O)CC4)[C@H]3[C@H](c3cccc(Cl)c3F)[C@]23C(=O)Nc2cc(Cl)ccc23)c1 (some centres unmarked) [Compound I-62]
5 nM	CCOc1cccc(CN2[C@H]3C[C@@H](c4ccc(C(=O)O)cc4)N[C@H]3[C@H](c3cccc(Cl)c3F)[C@]23C(=O)Nc2cc(Cl)ccc23)c1 [Compound I-37]
722 nM	CCOc1cccc(CN2[C@@H]3CCN(CC(=O)O)[C@@H]3[C@@H](c3cccc(Cl)c3F)[C@@]23C(=O)Nc2cc(Cl)ccc23)c1 [Compound I-71]
2 nM	CCOc1cccc(CN2[C@H]3CCN(CC(=O)O)[C@H]3[C@H](c3cccc(Cl)c3F)[C@]23C(=O)Nc2cc(Cl)ccc23)c1 [Compound I-70]
386 nM	O=C(Cc1cccnc1)N1CC[C@H]2C1[C@H](c1cccc(Cl)c1F)[C@]1(C(=O)Nc3cc(Cl)ccc31)N2CC1CC1 (some centres unmarked) [Compound I-79]
28 nM	CCOc1cccc(CN2[C@H]3CCN(C(C)=O)C3[C@H](c3cccc(Cl)c3F)[C@]23C(=O)Nc2cc(Cl)ccc23)c1 (some centres unmarked) [Compound I-88]
274 nM	O=C(O)C1CCC(CN2CC[C@H]3[C@@H]2[C@H](c2cccc(Cl)c2F)[C@]2(C(=O)Nc4cc(Cl)ccc42)N3CC2CC2)CC1 (some centres unmarked) [Compound I-61]
124 nM	O=C(O)c1ccc([C@H]2CC[C@H]3[C@@H](N2)[C@H](c2cccc(Cl)c2F)[C@]2(C(=O)Nc4cc(Cl)ccc42)N3CC2CC2)cc1 [Compound I-39]
871 nM	O=C1Nc2nc(Cl)ccc2[C@@]12[C@@H](c1cccc(Cl)c1F)[C@@H]1NCC[C@@H]1N2CC1CC1 [Compound I-23]
389 nM	CC(=O)Nc1ccc(C(=O)N2CC[C@H]3C2[C@H](c2cccc(Cl)c2F)[C@]2(C(=O)Nc4cc(Cl)ccc42)N3CC2CC2)cc1 (some centres unmarked) [Compound I-82]
133 nM	O=C(O)c1ccc([C@@H]2CC[C@H]3[C@@H](N2)[C@H](c2cccc(Cl)c2F)[C@]2(C(=O)Nc4cc(Cl)ccc42)N3CC2CC2)cc1 [Compound I-40]
130 nM	O=C(O)C1CC1CN1CC[C@H]2[C@@H]1[C@H](c1cccc(Cl)c1F)[C@]1(C(=O)Nc3cc(Cl)ccc31)N2CC1CC1 (some centres unmarked) [Compound I-63]
209 nM	CCOc1cccc(CN2[C@@H]3CCN(CC4CC4C(=O)O)[C@@H]3[C@@H](c3cccc(Cl)c3F)[C@@]23C(=O)Nc2cc(Cl)ccc23)c1 (some centres unmarked) [Compound I-66]
173 nM	COc1cc(C(=O)O)ccc1[C@@H]1C[C@H]2[C@@H](N1)[C@H](c1cccc(Cl)c1)[C@]1(C(=O)Nc3cc(Cl)ccc31)N2CC1CC1 [Compound I-26]
623 nM	CCOC(=O)c1ccc([C@H]2C[C@H]3[C@@H](N2)[C@H](c2cccc(Cl)c2F)[C@]2(C(=O)Nc4cc(Cl)c(F)cc42)N3CC2CC2)cc1 [Compound I-13]
3 nM	CCOc1cccc(CN2[C@H]3CCN(CC4CC4C(=O)O)[C@H]3[C@H](c3cccc(Cl)c3F)[C@]23C(=O)Nc2cc(Cl)ccc23)c1 (some centres unmarked) [Compound I-65]
41 nM	O=C(O)c1ccc([C@@H]2C[C@H]3[C@@H](N2)[C@H](c2cccc(Cl)c2F)[C@]2(C(=O)Nc4cc(Cl)ccc42)N3CC2CC2)cc1 [Compound I-30]
607 nM	CN(C)c1cccc(C(=O)N2CC[C@H]3C2[C@H](c2cccc(Cl)c2F)[C@]2(C(=O)Nc4cc(Cl)ccc42)N3CC2CC2)c1 (some centres unmarked) [Compound I-87]
4 nM	CCOc1cccc(CN2[C@H]3C[C@H](c4ccc(C(=O)O)cc4)N[C@H]3[C@H](c3cccc(Cl)c3F)[C@]23C(=O)Nc2cc(Cl)ccc23)c1 [Compound I-36]
6 nM	CCOc1cccc(CN2[C@H]3CCN(C(C)=O)C3[C@H](c3ccnc(Cl)c3F)[C@]23C(=O)Nc2cc(Cl)ccc23)c1 (some centres unmarked) [Compound I-90]
119 nM	COCC(=O)N1CC[C@H]2C1[C@H](c1cccc(Cl)c1F)[C@]1(C(=O)Nc3cc(Cl)ccc31)N2CC1CC1 (some centres unmarked) [Compound I-77]
444 nM	CC(=O)Nc1ccc(C(=O)N2CC[C@H]3C2[C@H](c2cccc(Cl)c2F)[C@]2(C(=O)Nc4cc(Cl)ccc42)N3CC2CC2)c(C)c1 (some centres unmarked) [Compound I-81]
180 nM	CCOc1cccc(CN2[C@H]3CCN(C(C)=O)C3[C@H](c3cccc(Cl)c3F)[C@]23C(=O)Nc2cc(Cl)ccc23)n1 (some centres unmarked) [Compound I-91]
381 nM	CN(C)CC(=O)N1CC[C@H]2C1[C@H](c1cccc(Cl)c1F)[C@]1(C(=O)Nc3cc(Cl)ccc31)N2CC1CC1 (some centres unmarked) [Compound I-78]
5 nM	O=C(O)c1ccc([C@H]2C[C@H]3[C@@H](N2)[C@H](c2cccc(Cl)c2F)[C@]2(C(=O)Nc4cc(Cl)ccc42)N3CC2CC2)cc1 [Compound I-29]

— patent US10138251B2, “Spiro[3H-indole-3,2′-pyrrolidin]-2(1H)-one compounds and derivatives as MDM2-P53 inhibitors” (Boehringer Ingelheim International GmbH, priority 2014, dated 2018)
